From publication PMC5681660, “Reduced hepatitis B and D viral entry using clinically applied drugs as novel inhibitors of the bile acid transporter NTCP” (Scientific Reports, 2017)
Structures can show the parent of a compound that is named as a salt.

Biological target: T1, human NTCP (Homo sapiens, UniProt Q14973)
T1 sequence (Q14973 1-349): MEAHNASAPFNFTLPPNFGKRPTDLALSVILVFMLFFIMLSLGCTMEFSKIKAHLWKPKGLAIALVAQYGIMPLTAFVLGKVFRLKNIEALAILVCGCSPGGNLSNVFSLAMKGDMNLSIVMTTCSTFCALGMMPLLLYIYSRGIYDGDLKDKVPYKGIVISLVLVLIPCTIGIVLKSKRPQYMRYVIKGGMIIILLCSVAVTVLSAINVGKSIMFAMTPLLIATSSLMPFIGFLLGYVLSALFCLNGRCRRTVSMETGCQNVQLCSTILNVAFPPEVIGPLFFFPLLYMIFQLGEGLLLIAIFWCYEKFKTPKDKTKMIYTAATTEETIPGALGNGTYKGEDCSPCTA
Assay: Screening taurocholate uptake assay (96-well, [14C]taurocholate, 10 µM drug)
Details: for B-score functional assay: 10 µM drug; for position among the hits of the screen (combined ranking of both screening assays): 1280 drugs at 10 µM, TC uptake and Myrcludex B binding screens combined

[1] = ranking over the functional and the binding screening assay
[2] = combined ranking of functional and binding screening assays
[3] = screening taurocholate uptake, B-score

Structure (SMILES)	Ranking score [1]	B-score functional assay (screening taurocholate uptake)	Ranking score [2]	also measured
CCCc1nc2c(C)cc(-c3nc4ccccc4n3C)cc2n1Cc1ccc(-c2ccccc2C(=O)O)cc1 [Telmisartan]	165.804	-4.106	–	–
CN1C(C(=O)Nc2ccccn2)=C(O)c2sccc2S1(=O)=O [Tenoxicam]	–	0.141	641.502	–
COc1cc2nc(N3CCN(C(=O)C4CCCO4)CC3)nc(N)c2cc1OC (centres unmarked) [Terazosin hydrochloride]	–	-0.092	497.689	–
CC(C)N1CCN(c2ccc(OCC3COC(Cn4cncn4)(c4ccc(Cl)cc4Cl)O3)cc2)CC1 (centres unmarked) [Terconazole]	–	-0.057	502.144	–
O.O=C1C(O)=C(O)C(=O)C(O)=C1O [Tetrahydroxy-1,4-quinone hydrate]	–	-0.017	603.838	–
c1ccc(C2CN3CCSC3=N2)cc1 (centres unmarked) [Tetramisole hydrochloride]	250.531	-2.419	–	–
Cn1cnc2c1c(=O)[nH]c(=O)n2C [Theobromine]	–	-0.75	527.693	–
CS(=O)(=O)c1ccc([C@@H](O)[C@@H](CO)NC(=O)C(Cl)Cl)cc1 [Thiamphenicol]	–	-0.089	545.996	–
COc1c(O[C@@H]2O[C@H](CO)[C@@H](O)[C@H](O)[C@H]2O)cc2c(c1OC)-c1ccc(SC)c(=O)cc1[C@@H](NC(C)=O)CC2 [Thiocolchicoside]	64.2729	-3.578	–	–
CSc1ccc2c(c1)N(CCC1CCCCN1C)c1ccccc1S2 (centres unmarked) [Thioridazine hydrochloride]	203.814	0.02	–	–
C=C(NC(=O)C(=C)NC(=O)c1csc(C2=N[C@@H]3c4csc(n4)[C@H]4NC(=O)c5csc(n5)[C@H]([C@](C)(O)[C@@H](C)O)NC(=O)[C@H]5CSC(=N5)/C(=C/C)NC(=O)[C@H]([C@@H](C)O)NC(=O)c5csc(n5)[C@]3(CC2)NC(=O)[C@H](C)NC(=O)C(=C)NC(=O)[C@H](C)NC(=O)[C@H]([C@@H](C)CC)N[C@@H]2C=Cc3c([C@H](C)O)cc(nc3[C@H]2O)C(=O)O[C@@H]4C)n1)C(N)=O [Thiostrepton]	23.8747	-0.068	–	–
CCCCCCCCCCCCCCCC[N+](C)(C)CCN(Cc1ccc(OC)cc1)c1ncccn1 [Thonzonium bromide]	50.5173	-2.235	–	–
CC1(C)S[C@@H]2[C@H](NC(=O)[C@H](C(=O)O)c3ccsc3)C(=O)N2[C@H]1C(=O)O [Ticarcillin sodium]	110.132	-0.726	–	–
CCS(=O)(=O)CCn1c([N+](=O)[O-])cnc1C [Tinidazole]	–	-0.469	478.029	–
NC[C@H]1O[C@H](O[C@H]2[C@H](O)[C@@H](O[C@H]3O[C@H](CO)[C@@H](O)[C@H](N)[C@H]3O)[C@H](N)C[C@@H]2N)[C@H](N)C[C@@H]1O [Tobramycin]	–	-0.213	498.515	–
CCOC(=O)NNc1nncc2ccccc12 [Todralazine hydrochloride]	269.251	-1.372	–	–
Cc1ccc(S(=O)(=O)NC(=O)NN2CCCCCC2)cc1 [Tolazamide]	–	-0.681	601.655	–
Cc1cccc(N(C)C(=S)Oc2ccc3ccccc3c2)c1 [Tolnaftate]	–	6.72	550.781	–
CNCC[C@@H](Oc1ccccc1C)c1ccccc1 [Tomoxetine hydrochloride]	–	3.106	493.908	–
CN(C)CCOc1ccc(/C(=C(/CCCl)c2ccccc2)c2ccccc2)cc1 [Toremifene]	–	0.057	537.181	–
Cc1cccc(Nc2ccncc2S(=O)(=O)NC(=O)NC(C)C)c1 [Torsemide]	–	-1.122	467.226	–
CCCCNc1c(C(=O)OCC)c(C)nc2c1cnn2CC.Cl [Tracazolate hydrochloride]	238.155	-1.912	–	–
NC[C@H]1CC[C@H](C(=O)O)CC1 [Tranexamic acid]	255.588	0.375	–	–
COc1ccc(/C=C/C(=O)Nc2ccccc2C(=O)O)cc1OC [Tranilast]	106.883	-4.178	–	–
CSc1nc2cc(Cl)c(Oc3cccc(Cl)c3Cl)cc2[nH]1 [Triclabendazole]	–	-0.202	541.575	–
Oc1cc(Cl)ccc1Oc1ccc(Cl)cc1Cl [Triclosan]	149.432	-1.77	–	–

Structure (SMILES)	Ranking score [1]	B-score functional assay (screening taurocholate uptake)	Ranking score [2]	also measured
CC[N+](CC)(CC)CCC(O)(c1ccccc1)C1CCCCC1.[Cl-] (centres unmarked) [Tridihexethyl chloride]	–	0.93	474.251	–
Cl.OC(CCN1CCCCC1)(c1ccccc1)C1CCCCC1 (centres unmarked) [Trihexyphenidyl-D,L Hydrochloride]	–	0.458	472.758	–
CCC(COC(=O)c1cc(OC)c(OC)c(OC)c1)(c1ccccc1)N(C)C (centres unmarked) [Trimebutine]	–	-0.018	579.884	–
COc1cc(C(=O)NCc2ccc(OCCN(C)C)cc2)cc(OC)c1OC [Trimethobenzamide hydrochloride]	–	–	1250.5	B-score functional assay [3]: 2.997
CC(CN(C)C)CN1c2ccccc2CCc2ccccc21.O=C(O)/C=C\C(=O)O (centres unmarked) [Trimipramine maleate salt]	129.248	-0.962	–	–
CN(C)CCN(Cc1ccccc1)c1ccccn1 [Tripelennamine hydrochloride]	–	-0.493	512.348	–
Cc1c(C)c2c(c(C)c1O)CCC(C)(C(=O)O)O2 (centres unmarked) [Trolox]	114.263	-2.983	–	–
CN1[C@@H]2CC[C@H]1C[C@@H](OC(=O)c1c[nH]c3ccccc13)C2 [Tropisetron HCl]	–	-1.094	543.985	–
CC(C)(C)NCC(O)c1ccccc1Cl (centres unmarked) [Tulobuterol]	–	–	1214.72	B-score functional assay [3]: 2.873
CC(C)C[C@H](NC(=O)[C@@H](O)[C@H](N)Cc1ccccc1)C(=O)O [Ubenimex]	–	0.218	608.5	–
C[C@H](CCC(=O)O)[C@H]1CC[C@H]2[C@@H]3[C@@H](O)C[C@@H]4C[C@H](O)CC[C@]4(C)[C@H]3CC[C@]12C [Urosiol]	126.965	-4.542	–	–
CC(C)[C@H](N)C(=O)OCCOCn1cnc2c(=O)[nH]c(N)nc21 [Valacyclovir hydrochloride]	–	0.32	518.986	–
CCCc1nc(C)c2c(=O)[nH]c(-c3cc(S(=O)(=O)N4CCN(CC)CC4)ccc3OCC)nn12 [Vardenafil]	–	-0.039	546.31	–
Clc1ccc(Nc2nnc(Cc3ccncc3)c3ccccc23)cc1 [Vatalanib]	181.191	-2.979	–	–
COc1ccc(C(CN(C)C)C2(O)CCCCC2)cc1 (centres unmarked) [Venlafaxine]	–	–	–	Ranking score (combined ranking from functional and binding screening assays): 459.852; B-score functional assay (screen, taurocholate uptake): -0.102
O=C(CCCCCCC(=O)Nc1ccccc1)NO [Vorinostat]	–	-0.284	583.003	–
COC(=O)[C@@H]1[C@H]2C[C@H]3c4[nH]c5ccccc5c4CCN3C[C@@H]2CC[C@@H]1O [Yohimbine hydrochloride]	229.785	-1.965	–	–
CCN(C(C)=O)c1cccc(-c2ccnc3c(C#N)cnn23)c1 [Zaleplon]	–	1.229	584.018	–
CCCOc1ccccc1-c1nc2nn[nH]c2c(=O)[nH]1 [Zaprinast]	188.481	-1.838	–	–
CN(C)C/C=C(\c1ccc(Br)cc1)c1cccnc1.Cl.Cl.O [Zimelidine dihydrochloride monohydrate]	266.786	-1.216	–	–
Cc1cc(CC(=O)[O-])n(C)c1C(=O)c1ccc(Cl)cc1.[Na+] [Zomepirac sodium salt]	–	-0.802	527.712	–
CN1CCN(C(=O)OC2c3nccnc3C(=O)N2c2ccc(Cl)cn2)CC1 (centres unmarked) [Zopiclone]	176.746	-0.919	–	–
Cl.Cl.OCCN1CCN(CC/C=C2/c3ccccc3Sc3ccc(Cl)cc32)CC1 [Zuclopenthixol dihydrochloride]	243.28	-0.306	–	–
C[C@H](CCC(=O)O)[C@H]1CC[C@H]2[C@@H]3[C@H](O)C[C@@H]4C[C@H](O)CC[C@]4(C)[C@H]3CC[C@]12C [chenodeoxycholic acid]	–	–	–	position among the hits of the screen (combined ranking of both screening assays): ≤ 150
O=C1[C@H](CC[C@H](O)c2ccc(F)cc2)[C@@H](c2ccc(O)cc2)N1c1ccc(F)cc1 [ezetimibe, reference compound]	30.4959	-4.28	–	NTCP inhibition in the screen (in words) (10 µM, both screening assays): confirmed NTCP inhibition; position among the hits of the screen (combined ranking of both screening assays): ≤ 150
C[C@H](CCC(=O)O)[C@H]1CC[C@H]2[C@@H]3CC[C@@H]4C[C@H](O)CC[C@]4(C)[C@H]3CC[C@]12C [litocholic acid]	–	–	–	position among the hits of the screen (combined ranking of both screening assays): ≤ 150
